The source of these data is paper PMC3288109, “γ-Aminobutyric Acid Transporter 2 Mediates the Hepatic Uptake of Guanidinoacetate, the Creatine Biosynthetic Precursor, in Rats” (PLoS ONE, 2012).

The subject of data set [1] is T1, freshly isolated rat hepatocytes.
T1 construct: Wistar primary hepatocytes, collagenase perfusion
The data set can be described thus: cells. Further details: species or system primary rat hepatocytes; Inhibition of [14C]GAA (18 uM) uptake by freshly isolated rat hepatocytes, 37 C, scintillation counting. Conditions: Hepatocyte, 0.05 h, [14C]GAA 18 uM, 3 min, 37 C, read-out: % of control remaining. The source says: Rat hepatocytes were isolated by collagenase perfusion and Percoll isodensity centrifugation as described previously. The hepatocytes were resuspended in Tyrode buffer containing (in mM) 137 NaCl, 2.7 KCl, 1.05 MgCl2, 1.8 CaCl2, 12 NaHCO3, 0.4 NaH2PO4, and 5.6 D-glucose. Uptake of [^14C]GAA or [^14C]creatine by the freshly isolated hepatocytes was examined according to the methods described previously. In brief, after centrifugation and aspiration of the buffer, uptake was initiated by applying 100 µL Tyrode buffer containing [^14C]GAA or [^14C]creatine at 37°C in the presence or absence of inhibitors. Na^+-free Tyrode buffer was prepared by replacement of NaCl, NaH2PO4 and NaHCO3 with equimolar N-methyl-D-glucamine, KH2PO4, and KHCO3, respectively. Cl^−-free uptake buffer was prepared by replacement with equimolar gluconate. After a predetermined period, uptake was terminated by centrifugation of the solution. The cells were then solubilized in 1 N NaOH and subsequently neutralized with 1 N HCl. The cell-associated radioactivity and protein content were assayed by [compound left out] scintillation spectrometry and detergent compatible protein assay (a DC protein assay kit, Bio-Rad, Hercules, CA) with bovine serum albumin as a standard. […] In contrast, there was no time-dependent increase in [^14C]creatine uptake by hepatocytes (Figure 2A). […] The [^14C]GAA uptake took place in a concentration-dependent manner and consisted of a single saturable component (Figure 2B). […] In contrast, creatinine, betaine, guanidinosuccinic acid, L-arginine, L-alanine, and L-serine had much weaker effects. GABA, taurine, and creatine inhibited the [^14C]GAA uptake in a concentration-dependent manner with an IC50 value of 8.81±1.33 µM, 1.13±0.30 mM, and 1.42±0.53 mM, respectively (Figure 2C–E). […] Among the GAT subtypes, GAT2 is predominantly expressed in rat liver. […] [^14C]GAA uptake was reduced by 46.4% in GAT2-silenced hepatocytes corresponding to the reduction in GAT2 protein (Figure 2F).

For data set [2], the target named is T2, GAT2 (γ-aminobutyric acid transporter 2, SLC6A13) (Rattus norvegicus, UniProt P31646).
T2 sequence (P31646 1-602): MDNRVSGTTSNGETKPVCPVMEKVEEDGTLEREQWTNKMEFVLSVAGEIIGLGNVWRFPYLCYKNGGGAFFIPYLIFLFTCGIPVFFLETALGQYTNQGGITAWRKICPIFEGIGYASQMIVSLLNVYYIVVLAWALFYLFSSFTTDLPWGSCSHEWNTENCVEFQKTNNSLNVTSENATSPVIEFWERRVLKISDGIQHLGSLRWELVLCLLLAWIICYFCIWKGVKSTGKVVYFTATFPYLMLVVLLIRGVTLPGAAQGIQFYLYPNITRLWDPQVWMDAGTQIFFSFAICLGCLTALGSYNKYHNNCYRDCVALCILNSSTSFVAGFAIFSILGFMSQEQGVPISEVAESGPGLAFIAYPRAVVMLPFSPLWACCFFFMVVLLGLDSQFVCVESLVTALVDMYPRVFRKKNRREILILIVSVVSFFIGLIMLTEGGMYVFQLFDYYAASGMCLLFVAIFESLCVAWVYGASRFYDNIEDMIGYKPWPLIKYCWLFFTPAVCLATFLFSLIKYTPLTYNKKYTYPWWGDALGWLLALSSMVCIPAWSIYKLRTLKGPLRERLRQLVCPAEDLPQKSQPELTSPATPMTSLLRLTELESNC
The data set can be described thus: cell-based. Conditions: Oocyte; [14C]GAA 45 uM, 1 h, 20 C; read-out: % of control / 100±7. Further details: rat GAT2 open reading frame cRNA expressed in Xenopus laevis oocytes; species or system Xenopus laevis oocytes; Inhibition of [14C]GAA (45 uM) uptake by rat GAT2 cRNA-injected oocytes, 20 C, scintillation counting. Here is the method:
Using T7 RNA polymerase, capped cRNA was transcribed from NotI-linearized pGEM-HEN containing an open reading frame of rat GAT2 cDNA. Defolliculated oocytes were injected with 23 nL water or the capped cRNA (30–50 ng) and incubated at 18°C in freshly prepared standard oocyte saline solution containing 100 mM NaCl, 2 mM KCl, 1.8 mM CaCl2, 1 mM MgCl2, and 5 mM HEPES, 25 µg/mL gentamycin, 2.5 mM pyruvate and 1% bovine serum albumin, pH 7.5. The standard oocyte saline solution used to incubate the oocytes was replaced with fresh solution daily. Experiments were performed after incubation for 4 to 6 days. For the uptake study by Xenopus laevis oocytes, oocytes were preincubated with 500 µL ND96 solution containing (in mM) 96 NaCl, 2 KCl, 1.8 CaCl2, 1 MgCl2, and 5 HEPES for 20 min at 20°C before the uptake experiment. The uptake experiment was initiated by replacing the ND96 solution with 200 µL of the same solution containing [^14C]GAA (45 µM) […] [^14C]creatine (45 µM). After incubation for a designated time at 20°C, the uptake was terminated by addition of ice-cold ND96 solution. […] The inhibitory effects of GAT substrates and inhibitors on the [^14C]GAA uptake were further examined (Figure 3B and Table 3).

The target of data set [3] is T2, GAT2 (γ-aminobutyric acid transporter 2, SLC6A13). In kind it is cell-based. Particulars: xenopus oocytes.
Substrate in data set [4]: N=C(N)NCC(=O)O
Briefly: cells, lysate or membranes. In kind it is cell-based, Rattus norvegicus. Conditions: Na+ and Cl-.

In the case of `C[N+](C)(C)CC(=O)O` [Betaine], the activity at 2000 µM in data set [1] stood at 64.4 ± 8.7%. Further, the remaining activity at 5000 µM in data set [2] turned out to be 96.7 ± 7.4%.
Take `CN(CC(=O)O)C(=N)N` [Creatine]: the remaining activity at 5000 µM in data set [2] was determined as 57.3 ± 8.3%. The “[14C]creatine uptake by GAT2-expressing oocytes; also 57.3% of control [14C]GAA” value in data set [3] was 28 fold over water-injected oocytes.
As to `CN1CC(=O)NC1=N` [Creatinine], the activity at 2000 µM in data set [1] amounted to 75.3 ± 8.9%. The remaining activity at 5000 µM in data set [2] came out at 147 ± 18%.
Taken in the same sequence, the figures for `NCCCC(=O)O` [GABA] were 17.1 ± 1.6% and 1.74 ± 0.44%.
Turning to `NCC(=O)O` [Glycine], the activity at 2000 µM in data set [1] came to 54.4 ± 11.2%.
For `[H]/N=C(/N)NCC(=O)O` [Guanidinoacetic acid], in data set [1], the activity at 2000 µM came out at 24.1 ± 1.1%.
In the case of `N=C(N)NCCS(=O)(=O)O` [Guanidinoethansulfonic acid], the activity at 2000 µM in data set [1] came out at 33 ± 4.4%. In addition, the remaining activity at 5000 µM in data set [2] was 11 ± 1.2%.
On to `NC(N)=N[C@@H](CC(=O)O)C(=O)O` [Guanidinosuccinic acid], for which the activity at 2000 µM in data set [1] worked out at 71.2 ± 5.1%. Also, the remaining activity at 5000 µM in data set [2] came to 148 ± 11%.
As to `C[C@H](N)C(=O)O` [L-Alanine], in data set [1], the activity at 2000 µM amounted to 59.6 ± 7.8%. The remaining activity at 5000 µM in data set [2] was determined as 138 ± 18%.
For the molecule `N=C(N)NCCC[C@H](N)C(=O)O` [L-Arginine], in data set [1], the activity at 2000 µM was 74.9 ± 11.1%. In addition, the remaining activity at 5000 µM in data set [2] was 137 ± 15%.
In the case of `N[C@@H](CO)C(=O)O` [L-Serine], the activity at 2000 µM in data set [1] was 83.8 ± 6.4%.
On to `O=C(O)C1CCCNC1` (stereo not drawn) [Nipecotic acid], for which, in data set [1], the activity at 2000 µM was determined as 30.8 ± 1.2%. Moreover, in data set [2], the remaining activity at 5000 µM came out at 11.9 ± 1.5%.
For `NCCS(=O)(=O)O` [Taurine], the remaining activity at 5000 µM in data set [2] was 16.6 ± 4.4%.
As for `NCCC(=O)O` [β-Alanine], the activity at 2000 µM in data set [1] was found to be 28.5 ± 5.5%.
For `[H]/N=C(\N)NCCC(=O)O` [β-Guanidinopropionic acid], in data set [1], the activity at 2000 µM came out at 18.9 ± 0.9%. Besides, the remaining activity at 5000 µM in data set [2] came to 0.81 ± 0.07%.
Regarding `N=C(N)NCCCC(=O)O` [γ-Guanidinobutyric acid], the remaining activity at 5000 µM in data set [2] turned out to be 2.35 ± 0.23%.

B1: GAT2 (γ-aminobutyric acid transporter 2, SLC6A13) (Rattus norvegicus) (protein)
chain: T2 sequence (P31646 1-602)
notes: rat GAT2 open reading frame cRNA expressed in Xenopus laevis oocytes
Consider B1, for which, in data set [4], the Michaelis-Menten constant (Km) came out at 78.9 µM.

As usually defined, the Km is the concentration of substrate that gives half-maximal velocity.
